4 test systems from the supplement of paper PMC6045584 can be followed below.

Compound in assay [1]: CN(C)C/C=C/C(=O)Nc1cc2c(Nc3ccc(F)c(Cl)c3)ncnc2cc1O[C@H]1CCOC1 [AFATINIB]
The assay is described as follows: surviving fraction relative to DMSO-only wells; higher = less growth inhibition. The conditions noted are these: exposure time: 5 days. The essentials: (§1)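 Inhibitors at 0.5, 1, 5, 10, 50, 100, 500 and 1000 nM were applied continuously for five days to tumour cell lines seeded in log phase at 250–500 cells per well in 384-well plates 24 hours earlier. Viability was measured by CellTiter-Glo luminescence and expressed as surviving fraction relative to the median of DMSO-only wells. Luminescence was taken after 10 minutes at room temperature.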

Compound in assay [2]: T1, CNC(=O)c1ccc(N2C(=S)N(c3ccc(C#N)c(C(F)(F)F)c3)C(=O)C2(C)C)cc1F [MDV3100]
The assay is described as above. As to conditions: exposure time: 5 days. Summed up:
as §1

Compound in assay [3]: CC1(C)CC(=O)c2c(C(F)(F)F)nn(-c3ccc(C(N)=O)c(N[C@H]4CC[C@H](OC(=O)CN)CC4)c3)c2C1 [SNX-5422]
Kind of assay: area under dose-response curve of surviving fraction (unscaled, Aref=0) (surviving fraction x log10(nM)); higher = more resistant. The conditions noted are these: exposure time: 5 days; dose range 0.5-1000 nM. Summed up: (§2)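 Surviving fractions were fitted by 3-parameter logistic regression in the drc R package to give dose-response survival curves. They came from tumour cell lines treated for five days with eight inhibitor concentrations from 0.5 to 1000 nM and read by CellTiter-Glo luminescence against DMSO-only wells. The area under the curve is the unscaled activity area. It was calculated over log10 dose with Aref = 0.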

Compound in assay [4]: CC[C@@H]1C(=O)N(C)c2cnc(Nc3ccc(C(=O)NC4CCN(C)CC4)cc3OC)nc2N1C1CCCC1 [BI-2536]
Described as above. As to conditions: exposure time: 5 days; dose range 0.5-1000 nM. The essentials:
as §2

Compound in assay [5]: T1, MDV3100
The assay is described as above. As to conditions: exposure time: 5 days; dose range 0.5-1000 nM. Summed up:
as §2

Compound in assay [6]: Nc1nc2[nH]cnc2c(=S)[nH]1 [TIOGUANINE]
The assay is described as above. As to conditions: exposure time: 5 days; dose range 0.5-1000 nM. Summed up: as §2

± gives the standard deviation of the averaged measurements.

As to SUM159 BREAST, the surviving fraction in assay [1] (0.5 nM) was determined as 1.07 ± 0.02; in assay [1] (1 nM), 1.03 ± 0.061; in assay [1] (5 nM), 1.07 ± 0.023; in assay [1] (10 nM) it was 0.942 ± 0.13; in assay [1] (50 nM) it was 0.943 ± 0.15; in assay [1] (100 nM), 0.886 ± 0.27. Further, the surviving fraction was determined as 0.896 ± 0.23 in assay [1] (500 nM); 0.867 ± 0.27 in assay [1] (1000 nM); 1.01 ± 0.034 in assay [2] (0.5 nM); 1.005 ± 0.0052 in assay [2] (1 nM); 1.01 ± 0.011 in assay [2] (5 nM); 0.996 ± 0.01 in assay [2] (10 nM). Moreover, the surviving fraction is 1.01 ± 0.013 in assay [2] (50 nM), 1.014 ± 0.0025 in assay [2] (100 nM), 1.02 ± 0.015 in assay [2] (500 nM) and 0.9937 ± 0.0058 in assay [2] (1000 nM). Besides, the “area under dose-response curve” value is 2.17 in assay [3], 1.81 in assay [4] and 3.33 in assay [5].
Regarding VCAP PROSTATE, the surviving fraction in assay [1] (0.5 nM) amounted to 1.07 ± 0.14; in assay [1] (1 nM), 1 ± 0.16; in assay [1] (5 nM) it was 1.06 ± 0.093; in assay [1] (10 nM), 1.06 ± 0.051; in assay [1] (50 nM) it was 1.06 ± 0.064; in assay [1] (100 nM), 1.03 ± 0.14. Moreover, the surviving fraction came to 0.723 ± 0.14 in assay [1] (500 nM); 0.405 ± 0.043 in assay [1] (1000 nM); 1.04 ± 0.12 in assay [2] (0.5 nM); 1.06 ± 0.23 in assay [2] (1 nM); 1.09 ± 0.12 in assay [2] (5 nM); 1.11 ± 0.14 in assay [2] (10 nM). Further, the surviving fraction came out at 1.13 ± 0.058 in assay [2] (50 nM), 1.09 ± 0.15 in assay [2] (100 nM), 0.837 ± 0.07 in assay [2] (500 nM) and 0.722 ± 0.1 in assay [2] (1000 nM). The results for the “area under dose-response curve” value in assay [3], in assay [4] and in assay [6] were 2.12, 0.516 and 3.49, respectively.
For the test system VP229 BREAST, the surviving fraction is 1.1 ± 0.11 in assay [1] (0.5 nM); 1.03 ± 0.13 in assay [1] (1 nM); 0.645 ± 0.079 in assay [1] (5 nM); 0.586 ± 0.076 in assay [1] (10 nM); 0.324 ± 0.011 in assay [1] (50 nM); 0.273 ± 0.04 in assay [1] (100 nM). Also, the surviving fraction was found to be 0.272 ± 0.021 in assay [1] (500 nM); 0.165 ± 0.025 in assay [1] (1000 nM); 1.05 ± 0.052 in assay [2] (0.5 nM); 0.995 ± 0.089 in assay [2] (1 nM); 0.878 ± 0.095 in assay [2] (5 nM); 0.905 ± 0.13 in assay [2] (10 nM). Further, the surviving fraction was found to be 1 ± 0.12 in assay [2] (50 nM), 0.994 ± 0.055 in assay [2] (100 nM), 0.947 ± 0.07 in assay [2] (500 nM) and 0.806 ± 0.077 in assay [2] (1000 nM). Moreover, the “area under dose-response curve” value in assay [3] came to 2.34; in assay [4] it was 1.18; in assay [6], 3.57.
ZR751 BREAST: the surviving fraction in assay [1] (0.5 nM) stood at 1.14 ± 0.15; in assay [1] (1 nM) it was 0.982 ± 0.17; in assay [1] (5 nM), 0.979 ± 0.058; in assay [1] (10 nM), 0.926 ± 0.13; in assay [1] (50 nM) it was 0.746 ± 0.097; in assay [1] (100 nM), 0.87 ± 0.1. For the same test system, the surviving fraction in assay [1] (500 nM) came to 0.671 ± 0.083; in assay [1] (1000 nM), 0.536 ± 0.068; in assay [2] (0.5 nM), 1.12 ± 0.16; in assay [2] (1 nM), 1.14 ± 0.1; in assay [2] (5 nM) it was 1.04 ± 0.042; in assay [2] (10 nM) it was 1.04 ± 0.043. Moreover, the surviving fraction in assay [2] (50 nM) was determined as 1.17 ± 0.1; in assay [2] (100 nM) it was 1.12 ± 0.076; in assay [2] (500 nM), 1.22 ± 0.1; in assay [2] (1000 nM), 1.08 ± 0.079. Also, the “area under dose-response curve” value was determined as 2.39 in assay [3], 2.69 in assay [4] and 3.69 in assay [5].
